Experiment [1] relates to human breast cancer cell line HCC1954 (spheroid culture). The experiment can be described thus: Cell viability (CellTiter Glo) of HCC1954 in spheroid culture in combination with cisplatin. The class given is cell-based. To be noted: for CI / IC50: HCC1954 spheroid culture; for CI: combination with cisplatin; for viability at 0.001 µM / viability at 0.003 µM / viability at 0.01 µM / viability at 0.03 µM / viability at 0.1 µM / viability at 0.3 µM / viability at 1 µM / viability at 3 µM / viability at 10 µM / IC50: Homo sapiens; for viability at 0.001 µM / viability at 0.003 µM / viability at 0.01 µM / viability at 0.03 µM / viability at 0.1 µM / viability at 0.3 µM / viability at 1 µM / viability at 3 µM / viability at 10 µM: 72 h, HCC1954 spheroid, with cisplatin 10 μmol/L, 3 days; for viability at 0.001 µM: test substance 1.0 nM; for viability at 0.003 µM: test substance 3.0 nM; for viability at 0.01 µM: test substance 10.0 nM; for viability at 0.03 µM: test substance 30.0 nM; for viability at 0.1 µM: test substance 100.0 nM; for viability at 0.3 µM: test substance 300.0 nM; for viability at 1 µM: test substance 1000.0 nM; for viability at 3 µM: test substance 3000.0 nM; for viability at 10 µM: test substance 10000.0 nM; for IC50: in combination with cisplatin (10 μmol/L). An excerpt:
(§1) On the combinational effect of the embodiment of the invention, the results of evaluation using a combination index (CI) which is a quantitative index of the combinational effect are shown. The CI can be calculated by the following equation according to Cancer Research, 2010, Vol. 70, pp. 440 to 446.
(§2) That is, in a case where the drugs to be used in combination are drug 1 and drug 2, the CI at a certain drug concentration is
(§3) CI={(cell viability in case of using drug 1 and drug 2 in combination)/100}/{[(cell viability in case of using drug 1)/100]×[(cell viability in case of using drug 2)/100]}
Evaluation of Antitumor Activity Against Breast Cancer-Derived Cell Line HCC1954 by Combined Use of Cisplatin in Spheroid Culture
(§4) Gemcitabine, cisplatin, and methanesulfonate of Compound A were used as test substances.
(§5) Gemcitabine hydrochloride (manufactured by Plantex Co., Ltd.) dissolved in dimethyl sulfoxide (DMSO) was used as gemcitabine. Cisplatin (Cat. #039-20091, manufactured by Wako Pure Chemical Industries, Ltd.) dissolved in DMSO was used as cisplatin.
The human breast cancer cell line HCC1954 cells were subcultured in RPMI-1640 medium supplemented with 10% serum (Cat. #10437-028, manufactured by Thermo Fisher Scientific Inc.). During this test, all cell cultures were carried out in a CO2 incubator (set to 37° C. and 5% CO2, saturated with water vapor). The culture was diluted with 10% serum-supplemented medium to a cell density of 5000 cells/well/100 μL, and seeded on an Ultra-Low Attachment 96-well plate (Cat. #7007, manufactured by Corning Incorporated). The cells were cultured for 4 days to form spheroids.
(§6) The methanesulfonate of Compound A and gemcitabine were dissolved in DMSO to prepare 10 mmol/L DMSO solutions thereof. The thus-prepared DMSO solutions were diluted sequentially with DMSO to prepare DMSO solutions having a final treatment concentration of 1000-fold dilution. Cisplatin was dissolved in DMSO to prepare a 100 mmol/L DMSO solution. The thus-prepared DMSO solution of cisplatin was diluted with DMSO to prepare a DMSO solution having a final treatment concentration of 5000-fold dilution. Further, the DMSO solution of cisplatin was diluted with 10% serum-supplemented medium to prepare a cisplatin-containing medium having a final treatment concentration of 10-fold dilution. The DMSO diluted solutions of Compound A and gemcitabine were diluted with the cisplatin-containing medium to prepare treatment liquids having a final treatment concentration of 10-fold dilution. Compound A and gemcitabine were used with a maximum concentration of 10 μmol/L at a common ratio of 1/3 and 9 concentrations in combination with cisplatin (10 μmol/L, 5 μmol/L).
(§7) 10 μL of Compound A or gemcitabine diluted with the cisplatin-containing medium was added to each well. In addition, a group in which only a solvent containing no drug was added to wells in which cells were seeded (positive control), and a group in which only a solvent containing no drug was added to wells containing only a medium (negative control) were provided. All groups were set to n=3 well.
(§8) The cells were cultured for 3 days after the addition of the drug, and the cell viability was evaluated using a CellTiter Glo (registered trademark) Reagent (Cat. #G7570, manufactured by Promega Corporation) with the intracellular ATP level as an index. The concentration that inhibits cell viability by 50% (IC50 value) was calculated using XLFit software Ver.3 (registered trademark, manufactured by CTC Laboratory Systems Corporation).
The cell viability of each well was determined with the luminescence signal level of the negative control being 0% cell viability and the luminescence signal level of the positive control being 100% cell viability. The average value and standard deviation of the cell viability of each treatment group were calculated to prepare Table 11.
A general note: Cellular ATP, detected with luciferase, serves as a proxy for viable cell number.

The subject of experiment [2] is cholangiocarcinoma cell line HuCC-T1 (spheroid culture). The experiment can be described thus: Cell viability (CellTiter Glo) of HuCC-T1 in spheroid culture in combination with cisplatin. It is filed as cell-based, human. The following applies: for viability at 0.001 µM / viability at 0.003 µM / viability at 0.01 µM / viability at 0.03 µM / viability at 0.1 µM / viability at 0.3 µM / viability at 1 µM / viability at 3 µM / viability at 10 µM / IC50: Homo sapiens; for viability at 0.001 µM / viability at 0.003 µM / viability at 0.01 µM / viability at 0.03 µM / viability at 0.1 µM / viability at 0.3 µM / viability at 1 µM / viability at 3 µM / viability at 10 µM: HuCCT-1, 72 h, HuCC-T1 spheroid, with cisplatin 10 μmol/L, 3 days; for viability at 0.001 µM: test substance 1.0 nM; for viability at 0.003 µM: test substance 3.0 nM; for viability at 0.01 µM: test substance 10.0 nM; for viability at 0.03 µM: test substance 30.0 nM; for viability at 0.1 µM: test substance 100.0 nM; for viability at 0.3 µM: test substance 300.0 nM; for viability at 1 µM: test substance 1000.0 nM; for viability at 3 µM: test substance 3000.0 nM; for viability at 10 µM: test substance 10000.0 nM; for IC50: HuCCT-1, in combination with cisplatin (10 μmol/L); for IC50 / CI: HuCC-T1 spheroid culture; for CI: combination with cisplatin.
Excerpt: as §1, §2, §3
Evaluation of Antitumor Activity Against Cholangiocarcinoma Cell Line HuCC-T1 by Combined Use of Cisplatin in Spheroid Culture
as §4, §5
The cholangiocarcinoma cell line HuCC-T1 cells were subcultured in RPMI-1640 medium supplemented with 10% serum (Cat. #10437-028, manufactured by Thermo Fisher Scientific Inc.). During this test, all cell cultures were carried out in a CO2 incubator (set to 37° C. and 5% CO2, saturated with water vapor). The culture was diluted with 10% serum-supplemented medium to a cell density of 5000 cells/well/100 μL, and seeded on an Ultra-Low Attachment 96-well plate (Cat. #7007, manufactured by Corning Incorporated). The cells were cultured for 4 days to form spheroids.
as §6, with “(10” for “(10 μmol/L, 5”
as §7, §8
The cell viability of each well was determined with the luminescence signal level of the negative control being 0% cell viability and the luminescence signal level of the positive control being 100% cell viability. The average value and standard deviation of the cell viability of each treatment group were calculated to prepare Table 10.

For orientation: viability means a read-out of living cells in per cent, often relative to untreated cells. Broadly, the IC50 is the point on the concentration scale where inhibition reaches its midpoint.

In the case of `Nc1ccn([C@@H]2O[C@H](CO)[C@@H](O)C2(F)F)c(=O)n1` [Gemcitabine], in experiment [1], the CI worked out at 0.60, the viability at 0.001 µM was determined as 96%, the viability at 0.003 µM turned out to be 100% and the viability at 0.01 µM came out at 101%. In experiment [1], the viability at 0.03 µM was determined as 97%, the viability at 0.1 µM stood at 88%, the viability at 0.3 µM turned out to be 73% and the viability at 1 µM turned out to be 60%. In experiment [1], the viability at 3 µM came to 52%, the viability at 10 µM came out at 50% and the concentration for half-maximal inhibition (IC50) is no less than 10000 nM. Further, in experiment [2], the viability at 0.001 µM came out at 94%, the viability at 0.003 µM was 96%, the viability at 0.01 µM is 94% and the viability at 0.03 µM turned out to be 90%. In addition, in experiment [2], the viability at 0.1 µM worked out at 88%, the viability at 0.3 µM came to 84%, the viability at 1 µM was 79% and the viability at 3 µM came to 73%. Moreover, in experiment [2], the viability at 10 µM amounted to 50%, the IC50 was no less than 10000 nM and the CI is given as 0.79.
Turning to `Nc1ccn([C@@H]2S[C@H](CO)[C@@H](O)[C@@H]2F)c(=O)n1` [Compound A, 1-(2-deoxy-2-fluoro-4-thio-β-D-arabinofuranosyl)cytosine], in experiment [1], the CI is reported as 0.03, the viability at 0.001 µM turned out to be 92%, the viability at 0.003 µM turned out to be 94% and the viability at 0.01 µM was found to be 75%. In addition, in experiment [1], the viability at 0.03 µM amounted to 65%, the viability at 0.1 µM amounted to 38%, the viability at 0.3 µM came out at 15% and the viability at 1 µM was determined as 2%. In experiment [1], the viability at 3 µM amounted to 2%, the viability at 10 µM amounted to 2% and the IC50 was found to be 49.4 nM. Besides, in experiment [2], the viability at 0.001 µM was 95%, the viability at 0.003 µM is 93%, the viability at 0.01 µM was 87% and the viability at 0.03 µM came to 77%. For the same molecule, in experiment [2], the viability at 0.1 µM was 58%, the viability at 0.3 µM came to 41%, the viability at 1 µM amounted to 36% and the viability at 3 µM is 35%. In addition, in experiment [2], the viability at 10 µM came to 34%, the IC50 is 165 nM and the CI stood at 0.42.

The values are drawn from patent US20200405752A1, “ANTITUMOR AGENT, ANTITUMOR EFFECT ENHANCER, AND ANTITUMOR KIT” (FUJIFILM Corporation, priority 2018, published 2020).
